Measured values as given in US12582625B2, “Methods for treating neuroblastoma” (priority 2015, dated 2026).
Values joined by “and” are separate entries in the source; they are usually repeats but may differ in a detail not shown here. Equal entries are not always repeated. “Also recorded” adds a separate entry of the source.

Tests used:
[1] = test system: refractory or relapsed neuroblastoma; test: NMTRC 002: tumor response and progression free survival; assay type: in vivo, human; conditions: for PFS (days), individual patients: DFMO alone cycle 1, then with etoposide; for Status or Reason off study, individual patients: PF = progression free, PD = progressive disease
Method: Study Design and Treatment.
Tumor and clinical responses were monitored as secondary endpoints. Eighteen subjects were evaluated for efficacy. This study used the (RECIST) Response Evaluation Criteria measurements in Solid Tumor from the NCI (27) modified for pediatrics as well as MIBG or PET and bone marrow response. Tumor assessments/imaging studies were obtained at baseline>7 days from prior therapy and <21 days from the start of study therapy. These were repeated at the end of the first cycle and again after every other cycle.
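Wherever ALT elevation, maximum Grade 2, patients (%) is given: Open-label multicenter phase I 3+3 dose escalation in patients aged 0-21 years with relapsed or refractory neuroblastoma, dosed twice daily.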
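Wherever ALT elevation, maximum Grade 3, patients (%) is given: Open-label multicenter phase I 3+3 dose escalation in patients aged 0-21 years with relapsed or refractory neuroblastoma, dosed twice daily.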
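Wherever dose-limiting toxicities (DLTs) or drug related serious adverse events (SAEs) is given: Open-label multicenter phase I 3+3 dose escalation in patients aged 0-21 years with relapsed or refractory neuroblastoma, dosed twice daily.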
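Wherever tolerability in pediatric patients is given: Open-label multicenter phase I 3+3 dose escalation in patients aged 0-21 years with relapsed or refractory neuroblastoma, dosed twice daily.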

## NCCCC(N)(C(=O)O)C(F)F (centres unmarked) [DFMO, 2,5-diamino-2-(difluoromethyl) pentanoic acid]
[1]; 2-4.5 years after starting DFMO
  patients alive without progression of disease: three subjects remain alive without progression of disease; also recorded: Three patients remain alive without progression of disease
[1]; 18 evaluable subjects
  subjects with best response of progressive disease: 5
  subjects with best response of stable disease by RECIST: 12
[1]; 18 evaluable subjects, MIBG evaluable disease only
  patients with best response of PR: 1
[1]; DFMO dose 500 mg/m^2 BID
  Best Response (CT/MIBG), individual patients: SD/PR
  PFS (days), individual patients: 94 days and 1573 days and 1559 days
  Status or Reason off study, individual patients: Alive (PF)
[1]; DFMO dose 750 mg/m^2 BID
  PFS (days), individual patients: 418 days and 103 days and 67 days and 57 days and 31 days
[1]; DFMO dose 1000 mg/m^2 BID
  PFS (days), individual patients: 239 days and 64 days and 59 days
[1]; DFMO dose 1500 mg/m^2 BID
  Best Response (CT/MIBG), individual patients: SD/PR; also recorded: (CT Neg)/PR
  PFS (days), individual patients: 663 days and 209 days and 136 days and 62 days (3×) and 21 days
  Status or Reason off study, individual patients: Alive (PF) and 2nd Leukemia
[1]; NMTRC 002, all evaluable subjects
  mean progression free survival (PFS): 420 days
[1]; ODC SNP rs2302615 genotype Any A
  PFS: 282.1 ± 499.6
[1]; ODC SNP rs2302615 genotype GG
  PFS: 326.7 ± 501.6
[1]; ODC SNP rs2302616 genotype Any T
  PFS: 498.0 ± 635.4
[1]; ODC SNP rs2302616 genotype GG
  PFS: 110.8 ± 119.1
[1]; all 18 evaluable subjects, 95% CI: 62-418 days (Saulnier Sholler et al., 2015)
  median progression free survival (PFS): 80.5 days
[1]; patients with GG at rs2302616
  PFS: 110 days
[1]; patients with any minor T allele at rs2302616
  PFS: 498 days
[1]; three subjects evaluated by PET
  response by PET scans: two had a complete response and one a partial response
500-1500 mg/m^2 BID, all dose levels
  dose-limiting toxicities (DLTs) or drug related serious adverse events (SAEs): No dose-limiting toxicities (DLTs) or drug related serious adverse events (SAEs) were observed
500-1500 mg/m^2 twice per day by mouth
  tolerability in pediatric patients: well tolerated
Cycle 1 (N = 21)
  ALT elevation, maximum Grade 2, patients (%): 1 (5%)
  ALT elevation, maximum Grade 3, patients (%): 0
  ALT elevation, maximum Grade 4, patients (%): 0
  ALT elevation, maximum Grade 5, patients (%): 0
  AST elevation, maximum Grade 2, patients (%): 0
  AST elevation, maximum Grade 3, patients (%): 1 (5%)
  AST elevation, maximum Grade 4, patients (%): 0
  AST elevation, maximum Grade 5, patients (%): 0
  Anemia, maximum Grade 2, patients (%): 2 (10%)
  Anemia, maximum Grade 3, patients (%): 0
  Anemia, maximum Grade 4, patients (%): 1 (5%)
  Anemia, maximum Grade 5, patients (%): 0
  Anorexia, maximum Grade 2, patients (%): 0
  Anorexia, maximum Grade 3, patients (%): 1 (5%)
  Anorexia, maximum Grade 4, patients (%): 0
  Anorexia, maximum Grade 5, patients (%): 0
  Conjunctivitis, maximum Grade 2, patients (%): 1 (5%)
  Conjunctivitis, maximum Grade 3, patients (%): 0
  Conjunctivitis, maximum Grade 4, patients (%): 0
  Conjunctivitis, maximum Grade 5, patients (%): 0
  Constipation, maximum Grade 2, patients (%): 1 (5%)
  Constipation, maximum Grade 3, patients (%): 0
  Constipation, maximum Grade 4, patients (%): 0
  Constipation, maximum Grade 5, patients (%): 0
  Diarrhea, maximum Grade 2, patients (%): 1 (5%)
  Diarrhea, maximum Grade 3, patients (%): 0
  Diarrhea, maximum Grade 4, patients (%): 0
  Diarrhea, maximum Grade 5, patients (%): 0
  GGT elevation, maximum Grade 2, patients (%): 1 (5%)
  GGT elevation, maximum Grade 3, patients (%): 0
  GGT elevation, maximum Grade 4, patients (%): 0
  GGT elevation, maximum Grade 5, patients (%): 0
  Hypoalbumenia, maximum Grade 2, patients (%): 1 (5%)
  Hypoalbumenia, maximum Grade 3, patients (%): 0
  Hypoalbumenia, maximum Grade 4, patients (%): 0
  Hypoalbumenia, maximum Grade 5, patients (%): 0
  Hypophosphatemia, maximum Grade 2, patients (%): 1 (5%)
  Hypophosphatemia, maximum Grade 3, patients (%): 0
  Hypophosphatemia, maximum Grade 4, patients (%): 0
  Hypophosphatemia, maximum Grade 5, patients (%): 0
  Infection, sinus, maximum Grade 2, patients (%): 0
  Infection, sinus, maximum Grade 3, patients (%): 0
  Infection, sinus, maximum Grade 4, patients (%): 0
  Infection, sinus, maximum Grade 5, patients (%): 0
  Mouth pain, maximum Grade 2, patients (%): 0
  Mouth pain, maximum Grade 3, patients (%): 0
  Mouth pain, maximum Grade 4, patients (%): 0
  Mouth pain, maximum Grade 5, patients (%): 0
  Nausea, maximum Grade 2, patients (%): 0
  Nausea, maximum Grade 3, patients (%): 0
  Nausea, maximum Grade 4, patients (%): 0
